Like-named read-outs stand apart in the source and are kept apart here.
Tests used:
BRAF = BRAF (Homo sapiens, UniProt P15056); assay: RAF kinase assay, myc-tagged BRAF captured from COS cells; conditions: various GNF-2 concentrations, 30 min
BCR-ABL Ba/F3 cells [1] = assay: Western blots of CRAF immunoprecipitates and lysates, BCR-ABL Ba/F3 cells
[2] = system: BCR-ABL^T315I Ba/F3 cells; assay: Western blots of CRAF immunoprecipitates and lysates, BCR-ABL^T315I Ba/F3 cells
K562 cells [3] = assay: Apoptosis; type: cell-based, human; conditions: PD184352 1μM, 4 days
K562R cells [4] = assay: Apoptosis; type: cell-based, human; conditions: PD184352 1μM, 4 days
[5] = system: BCR-ABL^T315I Ba/F3 allografts; assay: Tumor allograft growth, BCR-ABL^T315I Ba/F3 cells in nude mice; type: in vivo; conditions: BCR-ABL^T315I tumors; 25 mg/kg, oral gavage daily
BCR-ABL Ba/F3 cells [6] = assay: Cell proliferation, BCR-ABL Ba/F3 cells; conditions: PD184352 2μM, imatinib 3μM, nilotinib 1μM, 4 days
BV173 cells [7] = assay: Cell proliferation and apoptosis; conditions: PD184352 0.2μM, nilotinib 0.1μM, 6 days
BV173R cells = assay: Cell proliferation and apoptosis; conditions: for cell death (apoptotic sub-G1 cells): 72 hr, absence of PD184352
[8] = system: CD34+ hematopoietic cells from healthy individuals; assay: Cell proliferation; conditions: nilotinib 1μM, PD184352 0.3μM, 96 hr
BCR-ABL Ba/F3 cells [9] = assay: Apoptosis; conditions: 4 days
[10] = system: BCR-ABL^G250E/T315I, BCR-ABL^E255K/T315I and BCR-ABL^E255V/T315I Ba/F3 cells; assay: Cell proliferation, Ba/F3 cells expressing compound BCR-ABL mutants; conditions: Ba/F3 cells with compound BCR-ABL mutants; PD184352 2μM, nilotinib 1μM, 4 days
[11] = system: BCR-ABL^T315I Ba/F3 cells; assay: Apoptosis; conditions: 4 days
[12] = system: BCR-ABL^T315I expressing mononuclear cells from imatinib-resistant CML patients; assay: Cell proliferation; conditions: primary BCR-ABL^T315I cells; nilotinib 1μM, PD184352 0.3μM, 96 hr
BRAF binding to CRAF = BRAF binding to CRAF with PLX4720; type: cell-based; conditions: Fig S3C; cells not given
[13] = system: SW620 (KRAS^G12V), Panc1 (KRAS^G12D) and H460 (KRAS^Q61H) cells; assay: Western blot for MEK and ERK activation in KRAS mutant cells; type: cell-based, human; conditions: imatinib 10μM, nilotinib 1μM, dasatinib 5μM
BV173 cells [14] = assay: Western blots of CRAF immunoprecipitates and lysates, BV173 cells; type: cell-based, human
K562 cells [15] = assay: Western blots of CRAF immunoprecipitates and lysates, K562 cells; type: cell-based, human; conditions: for BRAF binding to CRAF: imatinib 10μM, nilotinib 1μM, dasatinib 5μM
[16] = system: K562 cells expressing HRAS^G12V; type: cell-based, human; conditions: for BRAF binding to CRAF: imatinib 10μM, nilotinib 1μM, dasatinib 5μM; for MEK and ERK phosphorylation: pathway already saturated
D04 cells (NRAS^Q61L) = conditions: western blot
[17] = patient plasma; ref Weisberg et al., 2007; Demetri et al., 2002; cited from earlier work
CRAF [18] = target: T1, CRAF (Homo sapiens, UniProt P04049); conditions: D04 cells; imatinib 10μM, nilotinib 1μM, dasatinib 5μM, 3 hr
CRAF [19] = target: T1, CRAF; assay: RAF kinase assay, myc-tagged CRAF captured from COS cells; conditions: imatinib 10μM, nilotinib 1μM, dasatinib 5μM
CRAF^T421N = CRAF^T421N (Homo sapiens, UniProt P04049, T421N); assay: RAF kinase assay, myc-tagged CRAF^T421N captured from COS cells; conditions: gatekeeper mutant; imatinib 10μM, nilotinib 1μM, dasatinib 5μM
RAS [20] = assay: RAS-GTP capture assay, BCR-ABL Ba/F3 cells; type: cell-based, murine; conditions: nilotinib 1μM, 60 min
[21] = system: Ba/F3 cells expressing BCR-ABL^G250E/T315I, BCR-ABL^E255K/T315I and BCR-ABL^E255V/T315I; assay: Western blots, Ba/F3 cells expressing compound BCR-ABL mutants; type: cell-based, murine; conditions: Ba/F3 cells with compound BCR-ABL mutants
RAS [22] = assay: RAS activity in K562 cells; type: cell-based, human
K562R cells [23] = assay: Western blots, K562R cells; type: cell-based, human
RAS [24] = assay: RAS activity in K562R cells; type: cell-based, human
BCR-ABL Ba/F3 allografts = assay: Tumor allograft growth, BCR-ABL Ba/F3 cells in nude mice; type: in vivo; conditions: BCR-ABL tumors; 25 mg/kg, oral gavage daily
[25] = system: BV173R cells (BCR-ABL^T315I)
[26] = system: mononuclear cells harbouring native BCR-ABL from newly diagnosed CML patients; conditions: primary BCR-ABL cells; nilotinib 1μM, PD184352 0.3μM, 96 hr
[27] = system: BCR-ABL^T315I Ba/F3 cells; assay: Cell proliferation, BCR-ABL^T315I Ba/F3 cells
CRAF [28] = target: T2, CRAF (Mus musculus, UniProt Q99N57); assay: Endogenous CRAF kinase activity in BCR-ABL Ba/F3 cells
CRAF [29] = target: T2, CRAF; conditions: BCR-ABL^T315I Ba/F3 cells

T2 sequence (Q99N57 whole entry): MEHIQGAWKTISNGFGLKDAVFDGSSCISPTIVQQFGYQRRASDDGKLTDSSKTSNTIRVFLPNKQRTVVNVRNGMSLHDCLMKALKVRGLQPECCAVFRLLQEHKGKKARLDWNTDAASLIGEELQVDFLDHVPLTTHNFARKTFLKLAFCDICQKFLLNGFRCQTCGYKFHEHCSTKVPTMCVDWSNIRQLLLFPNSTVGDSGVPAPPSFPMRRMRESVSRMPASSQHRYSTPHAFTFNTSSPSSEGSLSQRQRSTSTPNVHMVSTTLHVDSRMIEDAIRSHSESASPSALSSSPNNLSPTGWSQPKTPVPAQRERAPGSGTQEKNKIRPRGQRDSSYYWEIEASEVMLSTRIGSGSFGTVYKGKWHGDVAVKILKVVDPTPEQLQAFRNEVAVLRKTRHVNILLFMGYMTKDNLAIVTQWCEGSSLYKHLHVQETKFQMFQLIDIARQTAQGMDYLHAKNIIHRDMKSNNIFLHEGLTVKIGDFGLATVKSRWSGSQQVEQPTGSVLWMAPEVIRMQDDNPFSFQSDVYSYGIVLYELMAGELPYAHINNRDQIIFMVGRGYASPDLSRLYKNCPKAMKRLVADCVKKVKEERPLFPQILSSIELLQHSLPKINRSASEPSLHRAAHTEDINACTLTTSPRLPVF
Sequence of BRAF (P15056 whole entry): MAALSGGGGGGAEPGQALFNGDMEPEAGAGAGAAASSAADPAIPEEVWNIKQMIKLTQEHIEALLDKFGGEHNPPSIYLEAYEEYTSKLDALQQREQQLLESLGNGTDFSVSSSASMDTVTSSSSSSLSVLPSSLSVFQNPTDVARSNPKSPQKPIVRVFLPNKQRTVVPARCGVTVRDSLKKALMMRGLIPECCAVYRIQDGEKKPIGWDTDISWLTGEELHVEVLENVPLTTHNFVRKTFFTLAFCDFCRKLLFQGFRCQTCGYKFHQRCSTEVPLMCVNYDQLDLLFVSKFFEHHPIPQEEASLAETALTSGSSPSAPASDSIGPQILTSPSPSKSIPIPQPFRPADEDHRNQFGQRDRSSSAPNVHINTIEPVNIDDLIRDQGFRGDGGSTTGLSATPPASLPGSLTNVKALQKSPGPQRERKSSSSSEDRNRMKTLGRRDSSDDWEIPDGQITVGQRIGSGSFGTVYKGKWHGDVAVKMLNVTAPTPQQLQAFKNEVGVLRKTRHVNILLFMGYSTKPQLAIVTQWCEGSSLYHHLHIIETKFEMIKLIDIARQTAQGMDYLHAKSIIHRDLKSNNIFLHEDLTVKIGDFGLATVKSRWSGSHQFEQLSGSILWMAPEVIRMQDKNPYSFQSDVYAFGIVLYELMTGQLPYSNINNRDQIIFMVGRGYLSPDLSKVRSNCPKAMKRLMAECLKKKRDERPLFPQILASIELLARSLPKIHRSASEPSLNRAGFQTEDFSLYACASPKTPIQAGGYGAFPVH

Compound: NC(=O)c1cccc(-c2cc(Nc3ccc(OC(F)(F)F)cc3)ncn2)c1 [GNF-2]
- BRAF activity in vitro (BRAF): did not inhibit BRAF activity in vitro
- BCR-ABL (Y245) and CRKL (Y207) phosphorylation (BCR-ABL Ba/F3 cells [1]; BCR-ABL Ba/F3 cells): blocked
- CRAF (S338) phosphorylation, MEK and ERK activity/phosphorylation (BCR-ABL Ba/F3 cells [1]; BCR-ABL Ba/F3 cells): blocked
- BCR-ABL and CRKL phosphorylation ([2]; BCR-ABL^T315I Ba/F3 cells): did not block BCR-ABL or CRKL phosphorylation
- BRAF binding to CRAF ([2]; BCR-ABL^T315I Ba/F3 cells): did not induce BRAF binding to CRAF
- CRAF (S338) phosphorylation, MEK and ERK activity/phosphorylation ([2]; BCR-ABL^T315I Ba/F3 cells): did not increase CRAF, MEK or ERK phosphorylation

Compound: Oc1cc(-c2nc(-c3ccccc3)[nH]c2-c2ccncc2)ccc1Cl [L779450]
- BCR-ABL (Y245) and CRKL (Y207) phosphorylation (BCR-ABL Ba/F3 cells [1]; BCR-ABL Ba/F3 cells): Neither agent inhibited BCR-ABL or CRKL phosphorylation
- BRAF binding to CRAF (BCR-ABL Ba/F3 cells [1]; BCR-ABL Ba/F3 cells): stimulated BRAF binding to CRAF
- CRAF (S338) phosphorylation, MEK and ERK activity/phosphorylation (BCR-ABL Ba/F3 cells [1]; BCR-ABL Ba/F3 cells): stimulated

Compound: O=C(NOCC1CC1)c1ccc(F)c(F)c1Nc1ccc(I)cc1Cl [PD184352]
- apoptosis / cell death (K562 cells [3]): did not kill these cells
- growth / cell death (K562R cells [4]): did not affect the growth
- tumor growth [5]: insensitive
- cell growth (BCR-ABL Ba/F3 cells [6]): did not inhibit the growth
- cell proliferation and apoptosis (BV173 cells [7]): did not inhibit cell proliferation or induce apoptosis
- cell proliferation and apoptosis (BV173R cells; PD184352 0.2μM, nilotinib 0.1μM, 6 days): did not inhibit cell proliferation or induce apoptosis
- cell proliferation [8]: resistant
- apoptosis (BCR-ABL Ba/F3 cells [9]): did not induce apoptosis
- cell proliferation [10]: did not affect proliferation
- apoptosis [11]: did not induce apoptosis
- cell growth [12]: did not affect the growth

Compound: CCCS(=O)(=O)Nc1ccc(F)c(C(=O)c2c[nH]c3ncc(Cl)cc23)c1F [PLX4720]
- BRAF binding to CRAF (BRAF binding to CRAF): did not induce strong binding of BRAF to CRAF

Compound: Cn1c(Nc2ccc(C(F)(F)F)cc2)nc2cc(Oc3ccnc(-c4ncc(C(F)(F)F)[nH]4)c3)ccc21 [RAF265]
- cell death (apoptotic sub-G1 cells) (BV173R cells): induced cell death
- BCR-ABL and CRKL phosphorylation ([2]; BCR-ABL^T315I Ba/F3 cells): did not inhibit BCR-ABL or CRKL phosphorylation
- BRAF binding to CRAF ([2]; BCR-ABL^T315I Ba/F3 cells): induced BRAF binding to CRAF

Compound: CN(C)CCOc1ccc(-c2nc(-c3ccncc3)c(-c3ccc4c(c3)CC/C4=N\O)[nH]2)cc1 [SB590885]
- BCR-ABL (Y245) and CRKL (Y207) phosphorylation (BCR-ABL Ba/F3 cells [1]; BCR-ABL Ba/F3 cells): Neither agent inhibited BCR-ABL or CRKL phosphorylation
- BRAF binding to CRAF (BCR-ABL Ba/F3 cells [1]; BCR-ABL Ba/F3 cells): stimulated BRAF binding to CRAF
- CRAF (S338) phosphorylation, MEK and ERK activity/phosphorylation (BCR-ABL Ba/F3 cells [1]; BCR-ABL Ba/F3 cells): stimulated

Compound: Cc1nc(Nc2ncc(C(=O)Nc3c(C)cccc3Cl)s2)cc(N2CCN(CCO)CC2)n1 [dasatinib]
- MEK and ERK activation [13]: activated MEK and ERK
- BCR-ABL and CRKL phosphorylation (BV173 cells [14]): inhibited BCR-ABL and CRKL phosphorylation
- BRAF binding to CRAF (BV173 cells [14]): did not induce BRAF binding to CRAF
- MEK and ERK activity (BV173 cells [14]): inhibited MEK and ERK
- BRAF binding to CRAF (K562 cells [15]): did not induce BRAF binding to CRAF
- BRAF binding to CRAF [16]: induced BRAF binding to CRAF
- MEK and ERK phosphorylation [16]: did not increase MEK and ERK phosphorylation
- lowest concentration stimulating robust MEK and ERK phosphorylation (D04 cells (NRAS^Q61L)): 100 nM
- peak plasma/serum concentration [17]: ~90 nM
- endogenous CRAF kinase activity (CRAF [18]): activated
- CRAF kinase activity in vitro (CRAF [19]): inhibited
- CRAF^T421N kinase activity in vitro (CRAF^T421N): resistant

Compound: Cc1cn(-c2cc(NC(=O)c3ccc(C)c(Nc4nccc(-c5cccnc5)n4)c3)cc(C(F)(F)F)c2)cn1 [nilotinib]
- MEK and ERK activation [13]: activated MEK and ERK
- BCR-ABL and CRKL phosphorylation (BV173 cells [14]): inhibited BCR-ABL and CRKL phosphorylation
- BRAF binding to CRAF (BV173 cells [14]): did not induce BRAF binding to CRAF
- MEK and ERK activity (BV173 cells [14]): inhibited MEK and ERK
- RAS activity (RAS-GTP) (RAS [20]): blocked RAS activity
- BCR-ABL and CRKL phosphorylation (K562 cells [15]): inhibited BCR-ABL and CRKL phosphorylation
- CRAF, MEK and ERK phosphorylation (K562 cells [15]): inhibited CRAF, MEK and ERK phosphorylation
- BRAF binding to CRAF (K562 cells [15]): did not induce BRAF binding to CRAF
- BRAF binding to CRAF [16]: induced BRAF binding to CRAF
- MEK and ERK phosphorylation [16]: did not increase MEK and ERK phosphorylation
- BCR-ABL and CRKL phosphorylation [21]: did not inhibit BCR-ABL or CRKL phosphorylation
- BRAF binding to CRAF, MEK and ERK activation [21]: induced BRAF binding to CRAF as well as MEK and ERK activation
- RAS activity (RAS [22]): suppressed RAS activity
- BCR-ABL and CRKL phosphorylation (K562R cells [23]): blocked BCR-ABL and CRKL phosphorylation
- CRAF, MEK and ERK phosphorylation (K562R cells [23]): did not block CRAF, MEK or ERK phosphorylation
- RAS activity (RAS [24]): did not inhibit RAS
- apoptosis / cell death (K562 cells [3]): induced apoptosis
- growth / cell death (K562R cells [4]): did not affect the growth
- tumor growth (BCR-ABL Ba/F3 allografts): strongly suppressed
- tumor growth [5]: insensitive
- lowest concentration stimulating robust MEK and ERK phosphorylation (D04 cells (NRAS^Q61L)): 100 nM
- BRAF binding to CRAF [25]: induced BRAF binding to CRAF
- MEK and ERK activity [25]: activated MEK and ERK
- cell proliferation [26]: inhibited the proliferation
- peak plasma/serum concentration [17]: ~4000 nM
- cell growth (BCR-ABL Ba/F3 cells [6]): sensitive
- endogenous CRAF kinase activity (CRAF [18]): activated
- cell growth [27]: resistant
- CRAF activity (CRAF [28]): blocked CRAF activity
- cell proliferation and apoptosis (BV173 cells [7]): inhibited cell proliferation and induced apoptosis
- CRAF kinase activity in vitro (CRAF [19]): inhibited
- CRAF activity (CRAF [29]): activated CRAF
- cell proliferation [8]: resistant
- CRAF^T421N kinase activity in vitro (CRAF^T421N): resistant
- apoptosis (BCR-ABL Ba/F3 cells [9]): induced apoptosis
- cell proliferation [10]: did not affect proliferation
- BRAF binding to CRAF (BCR-ABL Ba/F3 cells [1]): did not affect BRAF binding to CRAF
- BCR-ABL (Y245) and CRKL (Y207) phosphorylation (BCR-ABL Ba/F3 cells [1]; BCR-ABL Ba/F3 cells): blocked
- cell growth [12]: did not affect the growth
- BRAF binding to CRAF [2]: enhanced BRAF binding to CRAF
- CRAF (S338) phosphorylation, MEK and ERK activity/phosphorylation [2]: induced CRAF phosphorylation on S338 (Fig 3C) and activated CRAF (Fig 3D), MEK and ERK
- BCR-ABL and CRKL phosphorylation ([2]; BCR-ABL^T315I Ba/F3 cells): did not inhibit BCR-ABL or CRKL phosphorylation

Compound: CNC(=O)c1cc(Oc2ccc(NC(=O)Nc3ccc(Cl)c(C(F)(F)F)c3)cc2)ccn1 [sorafenib]
- cell death (apoptotic sub-G1 cells) (BV173R cells): induced cell death
